Data: patent US12018265B2, “Nucleic acid encoding n-methylputrescine oxidase and uses thereof” (22nd Century Limited, LLC, priority 2006, dated 2024)

How the values were obtained:
MPO = conditions: compared with N-methylated diamines; Hashimoto 1990, Walton and McLauchlan 1990, Boswell 1999; cited from earlier work
[1] = system: MPO and PMT expression in roots; experiment: qRT-PCR analysis of MPO and PMT expression in MeJa-treated roots; assay type: in vivo, Nicotiana benthamiana; conditions: MeJa 11 μM in hydroponic solution
Method: Nicotiana benthamiana (Solanaceae) seedlings were grown hydroponically in 0.25× Hoagland's solution supplemented with iron chelate solution and oxygenated using an aquarium bubbler. Roots from three-week old plants were sampled before (t=0) and at 1, 4, and 7 hours after addition of MeJa to a final concentration of 11 μM. Total RNA was isolated from 450 mg each of untreated leaves, untreated roots, and a combined MeJa-treated root sample composed of 150 mg roots each from the 1, 4 and 7 hour time points using a RNeasy midi kit (Qiagen). We constructed three separate subtractive cDNA libraries: NBREL2, with mRNA pooled from MeJa-treated roots as tester and untreated root mRNA as driver; NBLEL3, with mRNA pooled from MeJa-treated roots as tester and leaf mRNA as driver; and NBREL4, with mRNA pooled from MeJa-treated roots as both tester and driver.
The inducibility of MPO by MeJa application was determined using quantitative RT-PCR (qRT-PCR). The same PCR primers were used as for RT-PCR analysis of expression in different tissues. Total RNA was extracted from hydroponically grown roots immediately before and 1, 4, and 7 hours after addition of MeJa (11 μM) to the hydroponic solution. Hydroponic conditions are detailed in Example 1. […]

[2] = system: recombinant MPO (N-methylputrescine oxidase); experiment: Recombinant MPO enzyme assay (Amplex red hydrogen peroxide/peroxidase system); assay type: biochemical, Nicotiana benthamiana
Method: Protein extracts was prepared from the roots of buffer control, TRV-GFP and TRV-MPO (214D11) infected plants. The extraction method described in Hashimoto T. et al. (Plant Physiol. 93: 216-221 (1990)) was used. Briefly, 1 g roots was ground in liquid nitrogen and suspended in 20 ml of extraction buffer containing 100 mM potassium phosphate pH 7.5, 0.25 M sucrose, 5 mM EDTA, 0.3% ascorbate and 10% PVPP. After centrifugation at 500 g for 30 min, the supernatant was further centrifuged at 11,000 g for another 30 minutes. The supernatant was subjected to two rounds of 20% and 40% ammonium sulphate precipitation. The precipitate was resuspended in 1 ml water, followed by dialysis overnight in 2 l of buffer containing 20 mM potassium phosphate pH 7.5, 1 mM DTT and 20% glycerol. The protein concentration was determined by DC protein assay kit (BioRad). […] After incubating the mixture at 30° C. for 30 min, the fluorescence was measured with a fluorescence microplate reader (Victor3 UV multilabel reader, PerkinElmer) using excitation at 530-560 nm and emission at 590 nm.
The ORF of the N. benthamiana MPO was expressed in E. coli and the recombinant enzyme was purified for biochemical characterization. […] The protein concentration was determined with DC protein assay kit (BioRad) and MPO purity was analyzed with SDS-PAGE electrophoresis (BioRad). […]

NCCCCCN [Cadaverine]
Affinity as substrate for MPO (MPO): lower affinity than N-methylated diamines

CC/C=C\CC1C(=O)CCC1CC(=O)OC (centres unmarked) [MeJa, methyljasmonate]
Increase of MPO expression over pre-induction levels ([1]; roots before and 1, 4, 7 hours after, actin reference (FIG. 3)): 23 fold
Change of PMT transcript levels in response to the inducer ([1]; roots, compared with MPO (FIG. 3)): even more dramatic increase

CNCCCCN [N-methylputrescine]
Km ([2]; 1 μg Talon purified MPO, N-methylputrescine 10 mM to 0.01 mM, 30°, 30 minutes): 100 µM
Substrate specificity of recombinant MPO ([2]; 1 mM of N-methylputrescine, putrescine, diaminopropane, cadaverine, spermine and spermidine (FIG. 9)): preferred N-methylputrescine as a substrate
